“And” between values parts separate entries of the source, which are not always exact repeats. Identical values can stand only once. Like-named read-outs stand apart in the source and are kept apart here.
Legend:
[1] = system: MCF-7 human breast adenocarcinoma cells (hormone-dependent); experiment: SRB antiproliferative assay, MCF-7; format: cell-based; details: for IC50: SRB assay, 48 h incubation; for pIC50 MCF-7: p(IC50)= -Log(IC50), Table S4, this study
Experimental: (§1) Stock solutions of compounds 1a–5a and 1–5 (0.01 M) in DMSO were freshly prepared and subsequently diluted with cell culture media to appropriate concentrations for various biological experiments. These included the assessment of cell viability using the SRB assay, micronucleus testing, cell morphology studies, cell cycle arrest, AO/EB staining, and mitochondrial membrane permeabilization tests. For CT-DNA binding studies, experiments were conducted in DMSO/buffer solutions. All biological experiments were performed in triplicate or more.
(§2) Stock solutions of 1a–5a and 1–5 (0.01 M) were dissolved in DMSO and subsequently diluted with cell culture medium to the desired concentrations (0.5–30 μM). MCF-7, MDA MB-231, and MRC-5 cells were plated in 96-well flat-bottom microplates at various densities: 6000, 8000, and 2000 cells per well, respectively. The cells were incubated for 24 h at 37 °C and then exposed to 1a–5a and 1–5 for 48 h. ,–
(§3) Cytotoxicity was evaluated using the SRB colorimetric assay at λ = 568 nm, with cell survival percentages calculated relative to the untreated control cells. Detailed information on the SRB assay procedure can be found in the previous publication. ,–

[2] = system: MDA-MB-231 human breast adenocarcinoma cells (hormone-independent); experiment: SRB antiproliferative assay, MDA-MB-231; format: cell-based; details: 48 h incubation
Experimental: as §1, §2, §3

[3] = system: nontumorigenic human breast epithelial cell line (MCF-10A); experiment: SRB toxicity assay, MCF-10A; format: cell-based; details: 48 h incubation
Experimental: The toxicity of 1–5 was also evaluated against normal human fetal lung fibroblast (MRC-5) cells. Their IC50 values lie from 2.7 to 4.1 μM (Table ). The toxicity of these compounds was also evaluated against the nontumorigenic human breast epithelial cell line (MCF-10A), which is widely used as a model for normal human breast cells. They closely resemble normal human mammary epithelial cells in structure and are regulated by hormones and growth factors.
as §3

[4] = system: MRC-5 cells; experiment: In vitro micronucleus (MN) assay; format: cell-based, human; details: for Percentage of MN: IC50 values, control 2.9 ± 0.2
Experimental: MRC-5 cells were seeded at a density of 2 × 10^4 cells/well onto glass coverslips, which were placed in six-well plates containing 3 mL of cell culture medium and incubated for 24 h. […] After exposure, the coverslips were washed three times with PBS and treated with a hypotonic solution (75 mM KCl) for 10 min at room temperature. The hypotonized cells were fixed with at least three changes of a 1/3 acetic acid/methanol solution. Following fixation, the coverslips were washed with cold methanol containing 1% acetic acid. Acridine orange staining (50 μg/mL) was applied for 15 min at 37 °C, after which the coverslips were rinsed three times with PBS to remove any excess stain. The number of micronucleated cells per 1000 cells was then counted. ,– ,

[5] = system: calf thymus (CT)-DNA; experiment: CT-DNA binding, UV absorption spectroscopy; details: for binding constant K b toward CT-DNA: UV absorbance at 300–310 nm, CT-DNA 10–100 μΜ; for percentage of hyperchromism: UV spectra of CT-DNA with gradual additions of complex
Experimental: In order to elucidate the mechanism of action of compounds 1–5 against MCF-7 cells, their interaction with CT-DNA was investigated using UV absorption and fluorescence spectroscopy. The UV absorption spectra of compounds 1–5 were recorded both in the presence and absence of CT-DNA (Figure S27). […] The calculated K b values for 1–5 are (10.5 ± 1.8) × 10^4 (1), (6.3 ± 0.6) × 10^4 (2), (11.3 ± 1.6) × 10^4 (3), (7.5 ± 1.0) × 10^4 (4) and (10.2 ± 1.1) × 10^4 (5) M^–1, respectively.
For the experiments of titration, UV spectra of CT-DNA in buffer solution in the absence and presence of 1–5 at r values of 0–0.13 (r = [complex]/[DNA], [DNA] = 10^–4 M) were recorded. ,− In order to determine the constant K b value, UV spectra of 1–5 in the absence and presence of CT-DNA at r values 1–0.1 ([complex] = 10 μM, [CT DNA] = 10–100 μM) were investigated.^24,26–30 The K b value is obtained from the ratio of the slope to the y-intercept in plots [DNA]/(εa–εf) versus [DNA] (e a = A obsd/[compound], e f = the extinction coefficient for the free compound). ,−

[6] = system: calf thymus (CT)-DNA; experiment: CT-DNA-EB fluorescence displacement; format: binding; details: for quenching of fluorescence intensity of EB-DNA at 588 nm: EB 2.3 μM, CT-DNA 26 μM, complex 0–600 μM; for apparent binding constant K app: EB displacement
Experimental: The DNA-complex binding properties can also be studied by fluorescent spectroscopy can also be studied by fluorescent spectroscopy. ,– EB emits intense fluorescence in the presence of DNA due to its strong intercalation between adjacent DNA base pairs. As EB binds to DNA […], its displacement by a compound could indicate either intercalative binding or minor groove interaction, among other possibilities. ,– The emission spectra of the CT-DNA-EB complex were recorded in both the absence and presence of compounds 1–5 (Figure S29). The fluorescence intensity at λmax ^em = 588 nm was quenched by 60.2 (1). 58.5 (2), 62.0 (3), 61.9 (4) and 61.6 (5) %, for 1–5 respectively, compared to the initial fluorescence intensity of the EB-DNA solution.
The fluorescence spectroscopy method using EB was employed to determine the relative DNA binding properties of complexes 1–5 into CT-DNA. The emission spectra at 588 nm of EB (2.3 μM) solutions which contain CT-DNA (26 μM) in the absence or presence of various concentrations of complexes 1–5 (0–600 μM) were recorded upon their excitation at 527 nm. ,− The apparent binding constant (K app) was calculated using the equation: KEB*[EB]=Kapp*[DNA binder] where [DNA binder] is the concentration of the complex at a 50% reduction of the fluorescence, K EB= 10^7 M^–1, and [EB] = 2.3 μM. ,−
The concentration of the drug required to achieve a 50% reduction in fluorescence is determined from the plot of I o/I versus the concentration of the complex [DNA binder], Io/I=1+KSV*[DNA binder] where I o and I represent the fluorescence intensities of CT-DNA in the absence and presence of complexes 1–5, respectively. K SV is the Stern–Volmer dynamic quenching constant and [DNA binder] is the total concentration of the quencher (complexes 1–5). ,−

With c1ccc(-c2nnc([S][Ag]([PH](c3ccccc3)(c3ccccc3)c3ccccc3)([PH](c3ccccc3)(c3ccccc3)c3ccccc3)[PH](c3ccccc3)(c3ccccc3)c3ccccc3)o2)cc1 [compound 1] the IC50 [1] was 2.03 ± 0.09 µM, the “pIC50 MCF-7” value [1] was 5.7 and the IC50 [2] was 4.09 ± 0.17 µM. The IC50 [3] was 10.6 µM, the “Relative ratio of MN in respect to untreated cells” value (shortened to “Relative ratio of MN”) [4] was 1.38 fold and the “Relative ratio of MN” value ([4]; 48 h) was 1.4 and 1.38. For the same compound, the “Percentage of MN” value ([4]; 48 h) was 4.0 ± 0.6%, the “binding constant K b toward CT-DNA” value [5] was 10.5 ± 1.8 × 10^4 M^–1 and the percentage of hyperchromism [5] was 4.0%. The “quenching of fluorescence intensity of EB-DNA at 588 nm” value (“quenching” below) [6] was 60.2% and the “apparent binding constant K app” value [6] was 6.3 × 10^4 M^–1.

In the case of Fc1ccccc1-c1nnc([S][Ag]([PH](c2ccccc2)(c2ccccc2)c2ccccc2)([PH](c2ccccc2)(c2ccccc2)c2ccccc2)[PH](c2ccccc2)(c2ccccc2)c2ccccc2)o1 [compound 2], the IC50 [1] is reported as 2.5 ± 0.19 µM, the “pIC50 MCF-7” value [1] is reported as 5.6 and the IC50 [2] is reported as 3.9 ± 0.14 µM. The IC50 [3] was 13.9 µM, the “Relative ratio of MN” value [4] was 1.24 fold and the “Relative ratio of MN” value ([4]; 48 h) was 1.2 and 1.24. The “Percentage of MN” value ([4]; 48 h) was 3.6 ± 0.5%, the “binding constant K b toward CT-DNA” value [5] was 6.3 ± 0.6 × 10^4 M^–1 and the percentage of hyperchromism [5] was 7.6%. For the same compound, the “quenching” value [6] was 58.5% and the “apparent binding constant K app” value [6] was 6.7 × 10^4 M^–1.

For Fc1ccc(-c2nnc([S][Ag]([PH](c3ccccc3)(c3ccccc3)c3ccccc3)([PH](c3ccccc3)(c3ccccc3)c3ccccc3)[PH](c3ccccc3)(c3ccccc3)c3ccccc3)o2)cc1 [compound 3], the IC50 [1] was 2.15 ± 0.16 µM, the “pIC50 MCF-7” value [1] was 5.7 and the IC50 [2] was 2.52 ± 0.07 µM. For the same compound, the IC50 [3] was 10.9 µM, the “Relative ratio of MN” value [4] was 1.31 fold and the “Relative ratio of MN” value ([4]; 48 h) was 1.3 and 1.31. The “Percentage of MN” value ([4]; 48 h) was 3.8 ± 0.2%, the “binding constant K b toward CT-DNA” value [5] was 11.3 ± 1.6 × 10^4 M^–1 and 11.3 × 10^4 M^–1 and the percentage of hyperchromism [5] was 28.0%. For the same compound, the “quenching” value [6] was 62.0% and the “apparent binding constant K app” value [6] was 7.0 × 10^4 M^–1.

In the case of Clc1ccccc1-c1nnc([S][Ag]([PH](c2ccccc2)(c2ccccc2)c2ccccc2)([PH](c2ccccc2)(c2ccccc2)c2ccccc2)[PH](c2ccccc2)(c2ccccc2)c2ccccc2)o1 [compound 4], the IC50 [1] is reported as 3 ± 0.15 µM, the “pIC50 MCF-7” value [1] is reported as 5.5 and the IC50 [2] is reported as 4.27 ± 0.15 µM. The IC50 [3] was 16 µM, the “Relative ratio of MN” value [4] was 1.69 fold and the “Relative ratio of MN” value ([4]; 48 h) was 1.7 and 1.69. The “Percentage of MN” value ([4]; 48 h) was 4.9 ± 0.5%, the “binding constant K b toward CT-DNA” value [5] was 7.5 ± 1.0 × 10^4 M^–1 and the percentage of hyperchromism [5] was 8.5%. For the same compound, the “quenching” value [6] was 61.9% and the “apparent binding constant K app” value [6] was 6.9 × 10^4 M^–1.

With Clc1cccc(-c2nnc([S][Ag]([PH](c3ccccc3)(c3ccccc3)c3ccccc3)([PH](c3ccccc3)(c3ccccc3)c3ccccc3)[PH](c3ccccc3)(c3ccccc3)c3ccccc3)o2)c1 [compound 5] the IC50 [1] was 1.69 ± 0.08 µM, the “pIC50 MCF-7” value [1] was 5.8 and the IC50 [2] was 3.55 ± 0.19 µM. The IC50 [3] was 16.1 µM, the “Relative ratio of MN” value ([4]; 48 h) was 2.3 and 2.34 and the “Percentage of MN” value ([4]; 48 h) was 6.8 ± 1.5%. The “binding constant K b toward CT-DNA” value [5] was 10.2 ± 1.1 × 10^4 M^–1 and 10.2 × 10^4 M^–1, the percentage of hyperchromism [5] was 1.2% and the “quenching” value [6] was 61.6%. The “apparent binding constant K app” value [6] was 6.5 × 10^4 M^–1.

From PMC12239085, “Silver(I) Ions Bridging Oxadiazole-2-thione Derivatives with Mitochondriotropic Agents: A Promising Strategy for Potent Anticancer Chemotherapy” (Inorganic Chemistry, 2025)
